pIC50: −log10 of the molar value.
Molecular target: Apolipoprotein(a) (Homo sapiens, UniProt P08519)
Assay: Methods of ELISA Assay on Screening Lp(a) Assembly Inhibition
Description: 1) Added 100 μL of capture antibody to each well of a pre-coated ELISA plate and incubated overnight at 25° C.2) Added 300 μL of washing solution to each well and washed 5 times for 1 min each time.3) Added 100 μL of blocking solution to each well and incubated at 25° C. for 2 h.4) Added 300 μL of washing solution to each well and washed 5 times for 1 min each time.5) Added 100 μL of sample to each well and incubated at 25° C. for 1 h.6) Added 300 μL of washing solution to each well and washed 5 times for 1 min each time.7) Added 100 μL of detection antibody to each well and incubated at 25° C. for 1 h.8) Added 300 μL of washing solution to each well and washed 5 times for 1 min each time.9) Added 100 μL substrate solution (Color Reagent A: Color Reagent B, 1:1) to each well and incubated for 20 min at 25° C. in the dark.10) Added […] of stop solution to each well, gently blowed and sucked several times with the pipette tip, and read within 5 min.

Apolipoprotein(a), sequence (P08519 whole entry): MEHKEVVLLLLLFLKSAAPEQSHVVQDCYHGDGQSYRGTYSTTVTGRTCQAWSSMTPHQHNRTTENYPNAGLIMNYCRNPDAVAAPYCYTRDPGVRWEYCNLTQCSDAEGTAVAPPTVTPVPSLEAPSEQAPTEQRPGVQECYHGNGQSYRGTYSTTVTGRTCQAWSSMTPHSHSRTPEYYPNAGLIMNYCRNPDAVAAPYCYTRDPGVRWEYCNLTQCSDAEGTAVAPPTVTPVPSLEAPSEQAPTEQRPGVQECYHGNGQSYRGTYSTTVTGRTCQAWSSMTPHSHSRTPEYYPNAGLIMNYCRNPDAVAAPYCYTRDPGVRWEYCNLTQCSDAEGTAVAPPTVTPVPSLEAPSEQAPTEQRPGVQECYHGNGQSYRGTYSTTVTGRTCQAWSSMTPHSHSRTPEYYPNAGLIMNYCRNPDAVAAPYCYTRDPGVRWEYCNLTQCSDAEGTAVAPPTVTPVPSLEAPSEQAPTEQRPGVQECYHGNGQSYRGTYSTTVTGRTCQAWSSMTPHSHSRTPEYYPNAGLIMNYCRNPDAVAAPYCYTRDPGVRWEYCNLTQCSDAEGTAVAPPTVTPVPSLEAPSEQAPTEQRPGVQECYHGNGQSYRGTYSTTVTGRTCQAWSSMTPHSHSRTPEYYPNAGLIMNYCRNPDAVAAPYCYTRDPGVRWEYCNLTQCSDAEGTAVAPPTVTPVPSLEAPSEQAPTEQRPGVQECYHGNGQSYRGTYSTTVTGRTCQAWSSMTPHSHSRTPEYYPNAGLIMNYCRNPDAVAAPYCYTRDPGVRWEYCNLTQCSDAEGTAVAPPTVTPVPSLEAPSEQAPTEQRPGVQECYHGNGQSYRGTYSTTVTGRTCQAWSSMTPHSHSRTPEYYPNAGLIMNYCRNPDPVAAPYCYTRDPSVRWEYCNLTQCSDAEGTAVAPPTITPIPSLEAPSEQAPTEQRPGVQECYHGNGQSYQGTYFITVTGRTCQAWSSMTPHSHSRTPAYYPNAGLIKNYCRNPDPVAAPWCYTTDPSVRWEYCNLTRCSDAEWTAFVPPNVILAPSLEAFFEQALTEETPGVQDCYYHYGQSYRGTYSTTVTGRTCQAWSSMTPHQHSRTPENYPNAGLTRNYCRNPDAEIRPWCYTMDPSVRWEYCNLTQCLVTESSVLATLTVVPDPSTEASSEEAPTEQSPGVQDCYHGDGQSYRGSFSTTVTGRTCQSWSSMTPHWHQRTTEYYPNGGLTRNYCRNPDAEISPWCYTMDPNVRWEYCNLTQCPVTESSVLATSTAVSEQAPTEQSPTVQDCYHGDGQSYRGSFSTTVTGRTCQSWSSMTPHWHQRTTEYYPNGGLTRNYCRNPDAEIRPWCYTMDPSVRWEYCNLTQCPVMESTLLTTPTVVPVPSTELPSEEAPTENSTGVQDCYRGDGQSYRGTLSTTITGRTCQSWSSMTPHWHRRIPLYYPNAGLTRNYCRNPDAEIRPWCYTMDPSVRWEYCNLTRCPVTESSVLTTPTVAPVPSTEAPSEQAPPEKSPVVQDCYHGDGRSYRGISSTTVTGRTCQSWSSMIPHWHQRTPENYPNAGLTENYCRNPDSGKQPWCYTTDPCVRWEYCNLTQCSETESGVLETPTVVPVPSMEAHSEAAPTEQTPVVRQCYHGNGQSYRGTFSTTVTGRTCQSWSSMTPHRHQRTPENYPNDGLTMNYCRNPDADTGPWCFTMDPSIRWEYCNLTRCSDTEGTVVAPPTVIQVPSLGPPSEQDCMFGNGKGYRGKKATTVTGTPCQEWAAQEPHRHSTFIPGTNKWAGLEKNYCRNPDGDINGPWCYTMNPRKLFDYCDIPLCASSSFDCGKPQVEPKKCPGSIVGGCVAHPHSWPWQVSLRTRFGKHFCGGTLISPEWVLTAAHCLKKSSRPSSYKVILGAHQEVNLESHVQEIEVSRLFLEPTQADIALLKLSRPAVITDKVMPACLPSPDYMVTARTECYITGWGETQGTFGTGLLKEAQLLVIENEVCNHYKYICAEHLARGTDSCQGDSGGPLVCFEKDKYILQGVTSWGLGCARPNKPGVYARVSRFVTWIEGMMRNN

O=C(O)[C@@H](Cc1cc2cc(CN(Cc3ccc4oc(C[C@H](C(=O)O)[C@H]5CCNC5)cc4c3)Cc3ccc4oc(C[C@H](C(=O)O)[C@H]5CCNC5)cc4c3)ccc2o1)[C@H]1CCNC1 [US20250179055, Compound 127]
pIC50: 9.05

Reference: BindingDB's records for patent US20250179055 (Innovstone Therapeutics, 2025)
